Test results taken from patent publication US20160250255A1, “METHODS FOR INDUCTION OF ANTIGEN-SPECIFIC REGULATORY T CELLS” (IMCYSE SA, priority 2013, published 2016).

Key:
dendritic cells = experiment: Induction of apoptosis of peptide-loaded dendritic cells by peptide-expanded NKT cells (annexin V binding); assay type: cell-based, C57BL/6 mice; conditions: NKT cells expanded with the peptide; FIG. 1, means of 2 experiments and SEM; negative control dendritic cells with no peptides
Method: Antigen-presenting cells (APC) are prepared from C57BL/6 mice and loaded with a peptide encompassing a CD1d-restricted NKT cell peptide epitope of hexon-6 capsid protein of adenovirus 5 vector used for gene therapy or gene vaccination.
Dendritic cells loaded with one of these peptides are then incubated with naïve CD62L+ CD4+ cells obtained from the spleen. After several cycles of stimulation, the capacity of NKT cells to induce apoptosis of the corresponding APC is measured and a comparison is established between peptides for their capacity to induce apoptosis.
The results shown in FIG. 1 (means of 2 experiments and SEM) indicate that NKT cells expanded with peptide of either SEQ. ID NO: 1 or SEQ. […] Negative controls include dendritic cells incubated with no peptides.

WEHI 231 cells = experiment: Induction of apoptosis of B cell line WEHI 231 by peptide-expanded NKT cells; assay type: cell-based, BALB/c mice; conditions: WEHI 231 B cell line (H-2d) as APC; NKT cells elicited with the peptide; FIG. 3, means of 2 experiments and SEM
Excerpt: FIG. 3 depicts similar experiments (means of 2 experiments and SEM) but using a B cell line (WEHI 231 cells). WEHI cells are derived from BALB/c mice (H-2d) and not from C57BL/6 mice (H-2b). The histo-incompatibility between the 2 strains prevents presentation of peptides designed for C57BL/6 mice by BALB/c MHC class II, but not presentation by the non-polymorphic CD1d molecule. […] ID NO: 1 or SEQ. ID NO: 2.

APCs = experiment: Capacity of NKT cells to induce apoptosis of APCs, peptide with modified CD1d binding motif; assay type: cell-based; conditions: W substituted at position P7 of the CD1d binding motif
Method: Modification of the core sequence of the CD1d binding motif is carried out by introducing a hydrophobic amino acid at position P7 of the motif and generates the peptide IAFRDN FIGLMYW [SEQ. ID NO: 3], in which W at position 7 increases the binding to the hydrophobic pocket of CD1d.

Sequence	apoptosis of dendritic cells, as measured by annexin V binding (dendritic cells)	induction of apoptosis (WEHI 231 cells)	capacity of NKT cells to induce apoptosis of APCs (APCs)
IAFRDNFIGLMYY (fragment of hexon 6 capsis protein) [SEQ. ID NO: 1, amino acid residues 327 to 339 of the hexon-6 protein of adenovirus 5]	elicit apoptosis of dendritic cells	significant induction of apoptosis	
CHGCGGFIGLMYY (redutase motif + hexon 6 capsid protein) [SEQ. ID NO: 2, residues 333 to 339 of the hexon-6 protein containing a thioreductase motif (CxxC) within flanking residues (GG)]	elicit apoptosis of dendritic cells	significant induction of apoptosis	
IAFRDNFIGLMYW (modified version of hexon 6 capsid protein) [SEQ. ID NO: 3]			further boosts the capacity of NKT cells to induce apoptosis of APCs
